Source: ChEMBL document CHEMBL1255344, “Buthionine sulfoximine has anti-Trypanosoma cruzi activity in a murine model of acute Chagas' disease and enhances the efficacy of nifurtimox” (Antimicrob Agents Chemother, 2008)
Active and inactive are the calls of the source. No cut-off for these calls is given here.

Tests used:
Mus musculus = assay: Toxicity in BALB/c mouse at 220 mg/kg/day, ip measured after 20 days; format: organism-based; design: route intraperitoneal; settings: in vivo, 480 h
Trypanosoma cruzi [1] = assay: Antitrypanosomal activity against Trypanosoma cruzi clone Dm28c metacyclic trypomastigotes infected in mouse assessed as decrease in heart parasitemia at 220 mg/kg/day, ip measured after 20 days; format: functional, organism-based
Trypanosoma cruzi [2] = assay: Antitrypanosomal activity against Trypanosoma cruzi clone Dm28c metacyclic trypomastigotes infected in mouse assessed as decrease in heart parasite burden at 30 mg/kg/day, ip measured after 20 days; format: functional, organism-based
Trypanosoma cruzi [3] = assay: Antitrypanosomal activity against Trypanosoma cruzi clone Dm28c metacyclic trypomastigotes infected in mouse assessed as decrease in heart parasite burden at 220 mg/kg/day, ip measured after 20 days; format: functional, organism-based
Trypanosoma cruzi [4] = assay: Antitrypanosomal activity against Trypanosoma cruzi clone Dm28c metacyclic trypomastigotes infected in mouse assessed as decrease in heart parasitemia at 30 mg/kg/day, ip measured after 20 days; format: functional, organism-based
Trypanosoma cruzi [5] = assay: Antitrypanosomal activity against Trypanosoma cruzi clone Dm28c metacyclic trypomastigotes infected in BALB/c mouse assessed as increase in survival rate at 220 mg/kg/day, ip measured after 20 days (reference value: 25%); format: functional
Trypanosoma cruzi [6] = assay: Antitrypanosomal activity against Trypanosoma cruzi clone Dm28c metacyclic trypomastigotes infected in BALB/c mouse assessed as increase in survival rate at 30 mg/kg/day, ip measured after 20 days; format: functional, organism-based
Trypanosoma cruzi [7] = assay: Antitrypanosomal activity against Trypanosoma cruzi clone Dm28c metacyclic trypomastigotes infected in BALB/c mouse assessed as increase in survival rate at 2.5 mg/kg/day, ip measured after 20 days; format: functional, organism-based
Trypanosoma cruzi [8] = assay: Antitrypanosomal activity against Trypanosoma cruzi clone Dm28c metacyclic trypomastigotes infected in BALB/c mouse assessed as increase in survival rate at 10 mg/kg/day, ip measured after 20 days; format: functional; settings: 480 h, route intraperitoneal

CCCCS(=N)(=O)CCC(N)C(=O)O (stereo not given) [BUTHIONINE SULFOXIMINE]
Activity (Mus musculus): Non-toxic
Activity (Trypanosoma cruzi [1]): Active
Activity (Trypanosoma cruzi [2]): inactive
Activity (Trypanosoma cruzi [3]): Active
Activity (Trypanosoma cruzi [4]): inactive
Activity (Trypanosoma cruzi [5]): Active
survival at 220 mg/kg/day (Trypanosoma cruzi [5]; 480 h, route intraperitoneal): ≤ 80%
Activity (Trypanosoma cruzi [6]): inactive
Activity (Trypanosoma cruzi [7]): inactive
survival at 10 mg/kg/day (Trypanosoma cruzi [8]): ≤ 100%
